According to article PMC7714403 (JCI Insight, 2020):
Like-named read-outs stand apart in the source and are kept apart here.

What was measured:
Wnk1, Wnk2 = test: KiNativ, OCI cells live cell; type: cell-based, human; conditions: labeling site ATP Loop, peptide GSFKTVYK
MAST3 = MAST3 (Homo sapiens, UniProt O60307); test: KiNativ, OCI cells live cell; type: cell-based; conditions: 2 h, labeling site Lys2, peptide […]
TAO1, TAO3 = test: KiNativ, OCI cells live cell; type: cell-based, human; conditions: labeling site Lys2, peptide DIKAGNILLTEPGQVK
PIP4K2B = PIP4K2B (Homo sapiens, UniProt P78356); test: KiNativ, OCI cells live cell; type: cell-based; conditions: 2 h, labeling site ATP, peptide […]
PIP4K2B, sequence (P78356 whole entry): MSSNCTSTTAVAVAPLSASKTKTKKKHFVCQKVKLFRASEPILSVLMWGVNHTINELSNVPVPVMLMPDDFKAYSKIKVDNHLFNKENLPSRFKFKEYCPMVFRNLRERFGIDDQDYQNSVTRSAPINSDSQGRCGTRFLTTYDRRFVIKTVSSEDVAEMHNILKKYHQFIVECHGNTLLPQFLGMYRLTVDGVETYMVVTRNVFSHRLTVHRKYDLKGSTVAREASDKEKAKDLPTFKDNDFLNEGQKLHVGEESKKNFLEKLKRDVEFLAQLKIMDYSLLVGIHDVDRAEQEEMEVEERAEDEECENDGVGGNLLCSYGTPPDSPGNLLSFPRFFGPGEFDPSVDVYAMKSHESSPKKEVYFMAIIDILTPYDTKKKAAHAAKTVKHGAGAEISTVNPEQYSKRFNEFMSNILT

PIK3CB [1] = target: T1, PIK3CB (Homo sapiens, UniProt P42338); test: KiNativ, OCI cells live cell; type: cell-based; conditions: 2 h, labeling site ATP, peptide […]
T1 sequence (P42338 whole entry): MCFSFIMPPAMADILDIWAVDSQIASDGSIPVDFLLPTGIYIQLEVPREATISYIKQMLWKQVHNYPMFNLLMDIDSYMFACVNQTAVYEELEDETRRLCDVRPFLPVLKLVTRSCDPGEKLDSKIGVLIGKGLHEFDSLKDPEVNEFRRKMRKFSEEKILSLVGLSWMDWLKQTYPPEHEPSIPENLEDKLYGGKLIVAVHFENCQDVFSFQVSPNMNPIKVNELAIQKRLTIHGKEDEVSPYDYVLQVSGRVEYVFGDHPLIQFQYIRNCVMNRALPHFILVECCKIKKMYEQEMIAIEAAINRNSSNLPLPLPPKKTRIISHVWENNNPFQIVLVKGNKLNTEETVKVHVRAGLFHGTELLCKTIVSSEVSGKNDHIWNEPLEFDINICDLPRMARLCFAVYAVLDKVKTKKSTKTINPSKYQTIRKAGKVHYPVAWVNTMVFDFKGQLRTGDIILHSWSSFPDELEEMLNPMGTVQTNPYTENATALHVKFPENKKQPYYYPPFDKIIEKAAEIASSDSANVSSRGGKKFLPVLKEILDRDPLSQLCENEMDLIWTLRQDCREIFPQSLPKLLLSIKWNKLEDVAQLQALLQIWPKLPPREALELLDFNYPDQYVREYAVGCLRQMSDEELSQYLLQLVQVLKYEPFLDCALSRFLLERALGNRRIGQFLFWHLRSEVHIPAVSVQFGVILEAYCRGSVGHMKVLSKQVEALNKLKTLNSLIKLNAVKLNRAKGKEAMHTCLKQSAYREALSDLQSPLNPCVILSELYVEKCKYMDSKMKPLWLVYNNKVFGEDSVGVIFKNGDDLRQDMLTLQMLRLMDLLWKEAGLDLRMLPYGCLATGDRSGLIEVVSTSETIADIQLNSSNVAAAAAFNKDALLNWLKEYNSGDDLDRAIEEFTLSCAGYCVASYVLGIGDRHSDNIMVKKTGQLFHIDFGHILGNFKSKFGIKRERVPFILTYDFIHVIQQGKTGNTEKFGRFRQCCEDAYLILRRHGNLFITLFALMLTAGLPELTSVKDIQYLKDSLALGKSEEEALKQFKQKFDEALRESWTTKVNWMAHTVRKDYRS
T1 sequence (P27986 whole entry partner): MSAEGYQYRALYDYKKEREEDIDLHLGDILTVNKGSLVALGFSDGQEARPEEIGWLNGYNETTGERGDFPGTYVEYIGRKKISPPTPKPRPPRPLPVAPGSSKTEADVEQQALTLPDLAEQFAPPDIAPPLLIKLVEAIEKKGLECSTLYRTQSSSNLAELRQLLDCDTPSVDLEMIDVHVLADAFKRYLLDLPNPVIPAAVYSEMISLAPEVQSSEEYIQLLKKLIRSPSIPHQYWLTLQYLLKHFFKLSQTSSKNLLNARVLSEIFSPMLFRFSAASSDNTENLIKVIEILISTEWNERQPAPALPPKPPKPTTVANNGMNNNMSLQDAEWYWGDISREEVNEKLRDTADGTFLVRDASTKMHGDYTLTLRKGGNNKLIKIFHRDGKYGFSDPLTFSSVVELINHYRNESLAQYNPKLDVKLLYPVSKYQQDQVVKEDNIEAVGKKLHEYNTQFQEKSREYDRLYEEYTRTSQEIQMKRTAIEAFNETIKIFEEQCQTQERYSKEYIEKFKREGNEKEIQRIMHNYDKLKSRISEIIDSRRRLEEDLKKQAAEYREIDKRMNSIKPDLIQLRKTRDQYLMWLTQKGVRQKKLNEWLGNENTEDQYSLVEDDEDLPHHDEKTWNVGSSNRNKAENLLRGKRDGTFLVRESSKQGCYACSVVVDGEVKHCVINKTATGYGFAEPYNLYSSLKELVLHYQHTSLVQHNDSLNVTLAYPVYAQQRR

cord blood CD34+ cells = test: CFU assay, normal cells; type: cell-based, human; conditions: 2 donors
Protocol: For human primary CFU assays, cells were cultured in MethoCult H4035 Optimum without EPO (Stemcell Technologies). For mouse primary CFU assays, cells were directly cultured in MethoCult M3231 (Stemcell Technologies) supplemented with 45 ng/mL of murine IL-6 (mIL-6), mIL-3, and mSCF. Both human and mouse primary cells 10,000 cells were plated in duplicate for each drug concentration. For cell line CFU assays, MV4-11 cells were treated with drugs in the presence of 20 ng/mL IL-3, GM-CSF, or FGF2. Cells were plated in MethoCult H4230 (Stemcell Technologies) in duplicates at 250 cells/plate. Plates were placed in a 37°C incubator for 7 or 14 days for human cell lines and for mouse or human primary cells, respectively. Colonies were identified as clusters containing 40 or more cells. For CFU assays using human primary CD34^+ cells, umbilical cord blood was obtained from the OSU Comprehensive Cancer Center (CCC) Leukemia Tissue Bank Shared Resource, and mononuclear cells were isolated by using density gradient centrifugation. CD34^+ cells were purified using the CD34 UltraPure MicroBead Kit (Miltenyi Biotec) according to the manufacturer’s instructions. CFU assay with CD34^+ cells was performed as described above, and the total number of colonies were counted after 7–10 days.

MST4, YSK1 = test: KiNativ, MOLM13 live cells; type: cell-based, human; conditions: 100 nM, 2 hours; Lys2
Protocol: (§1) Samples were analyzed by KiNativ in situ kinase profiling by ActivX Biosciences.

AKT2, AKT3 = test: KiNativ, MOLM13 live cells; type: cell-based, human; conditions: 100 nM, 2 hours; ATP Loop
Protocol: as §1

MAP3K2, MAP3K3 = test: KiNativ, MOLM13 live cells; type: cell-based, human; conditions: 100 nM, 2 hours; Lys2
Protocol: as §1

PKCd = PKCd (Homo sapiens, UniProt Q05655); test: KiNativ, OCI cells live cell; type: cell-based; conditions: 2 h, labeling site Other, peptide […]
PKCd, sequence (Q05655 whole entry): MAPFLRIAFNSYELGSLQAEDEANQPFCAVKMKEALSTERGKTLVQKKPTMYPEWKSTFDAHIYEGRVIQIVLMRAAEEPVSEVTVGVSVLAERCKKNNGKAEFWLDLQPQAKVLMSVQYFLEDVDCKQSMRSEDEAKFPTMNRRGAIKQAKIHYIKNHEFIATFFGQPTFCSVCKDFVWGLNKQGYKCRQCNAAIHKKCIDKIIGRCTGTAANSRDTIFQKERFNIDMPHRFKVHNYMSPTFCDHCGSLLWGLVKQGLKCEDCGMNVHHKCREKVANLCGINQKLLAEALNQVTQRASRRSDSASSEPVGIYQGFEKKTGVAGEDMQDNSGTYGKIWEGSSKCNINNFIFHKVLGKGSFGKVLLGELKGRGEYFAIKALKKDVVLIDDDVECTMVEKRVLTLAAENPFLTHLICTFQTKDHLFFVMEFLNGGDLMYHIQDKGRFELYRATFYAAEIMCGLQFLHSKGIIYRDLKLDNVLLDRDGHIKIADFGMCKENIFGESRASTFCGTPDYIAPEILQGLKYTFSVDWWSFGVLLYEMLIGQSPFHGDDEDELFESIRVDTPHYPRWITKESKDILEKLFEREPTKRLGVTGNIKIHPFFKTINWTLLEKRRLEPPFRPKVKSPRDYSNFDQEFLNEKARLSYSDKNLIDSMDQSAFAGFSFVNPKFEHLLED

JAK2 = target: T2, JAK2 (Homo sapiens, UniProt O60674); test: KdELECT binding assay
T2 construct: purchased Eurofins DiscoverX

PCTAIRE2 = PCTAIRE2 (Homo sapiens, UniProt Q00537); test: KiNativ, OCI cells live cell; type: cell-based; conditions: 2 h, labeling site Lys2, peptide […]
PCTAIRE2, sequence (Q00537 whole entry): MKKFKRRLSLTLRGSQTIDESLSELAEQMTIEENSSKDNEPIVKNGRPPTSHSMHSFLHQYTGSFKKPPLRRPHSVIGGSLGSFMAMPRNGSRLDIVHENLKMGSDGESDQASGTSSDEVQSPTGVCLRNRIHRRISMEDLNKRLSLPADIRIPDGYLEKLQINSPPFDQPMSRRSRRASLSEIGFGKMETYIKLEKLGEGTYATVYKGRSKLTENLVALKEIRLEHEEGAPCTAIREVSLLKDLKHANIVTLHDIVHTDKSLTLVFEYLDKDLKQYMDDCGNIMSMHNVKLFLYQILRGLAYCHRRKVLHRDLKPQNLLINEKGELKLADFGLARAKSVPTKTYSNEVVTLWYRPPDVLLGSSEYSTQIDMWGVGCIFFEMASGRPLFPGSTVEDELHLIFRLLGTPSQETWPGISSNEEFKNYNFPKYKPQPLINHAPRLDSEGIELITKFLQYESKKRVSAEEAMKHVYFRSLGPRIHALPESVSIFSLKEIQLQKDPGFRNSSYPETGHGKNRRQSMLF

NEK9 = target: T3, NEK9 (Homo sapiens, UniProt Q8TD19); test: KiNativ, OCI cells live cell; type: cell-based; conditions: 2 h
T3 sequence (Q8TD19 1-979): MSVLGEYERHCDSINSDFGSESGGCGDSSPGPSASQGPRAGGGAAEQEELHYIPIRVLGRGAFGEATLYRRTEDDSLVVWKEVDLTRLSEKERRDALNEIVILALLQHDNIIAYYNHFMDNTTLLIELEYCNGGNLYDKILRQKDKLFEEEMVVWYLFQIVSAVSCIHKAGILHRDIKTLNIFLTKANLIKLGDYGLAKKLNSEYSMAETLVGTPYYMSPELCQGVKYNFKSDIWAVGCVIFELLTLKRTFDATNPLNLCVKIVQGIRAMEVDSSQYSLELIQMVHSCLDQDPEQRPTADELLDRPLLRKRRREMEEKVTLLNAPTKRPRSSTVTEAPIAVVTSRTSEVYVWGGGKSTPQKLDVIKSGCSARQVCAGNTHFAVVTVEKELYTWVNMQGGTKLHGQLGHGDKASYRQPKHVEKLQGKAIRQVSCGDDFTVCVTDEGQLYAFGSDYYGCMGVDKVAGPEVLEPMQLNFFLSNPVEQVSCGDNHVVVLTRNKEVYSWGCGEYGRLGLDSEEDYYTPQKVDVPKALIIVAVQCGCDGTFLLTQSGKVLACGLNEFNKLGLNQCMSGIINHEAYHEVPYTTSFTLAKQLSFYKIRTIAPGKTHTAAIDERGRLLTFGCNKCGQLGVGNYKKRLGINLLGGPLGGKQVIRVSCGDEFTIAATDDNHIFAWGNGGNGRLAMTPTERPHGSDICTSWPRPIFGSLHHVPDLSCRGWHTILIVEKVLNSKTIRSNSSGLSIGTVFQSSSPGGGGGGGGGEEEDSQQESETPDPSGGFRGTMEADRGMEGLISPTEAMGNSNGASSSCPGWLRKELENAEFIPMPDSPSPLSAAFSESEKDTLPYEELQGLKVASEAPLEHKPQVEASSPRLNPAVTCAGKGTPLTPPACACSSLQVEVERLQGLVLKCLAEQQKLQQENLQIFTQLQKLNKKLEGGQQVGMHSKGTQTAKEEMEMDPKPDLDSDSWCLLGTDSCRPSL

PIK3CB [2] = target: T1, PIK3CB; test: KiNativ, MOLM13 live cells; type: cell-based; conditions: MOLM-13; 100 nM, 2 hours; ATP; read-out: Inhibition vs DMSO
Protocol: as §1

RSK1 domain2 = target: T4, RSK1 domain2 (Homo sapiens, UniProt Q15418); test: KiNativ, MOLM13 live cells; type: cell-based; conditions: MOLM-13; 100 nM, 2 hours; Lys2; read-out: Inhibition vs DMSO
T4 construct: RSK1 domain2
Protocol: as §1

IRAK2 = IRAK2 (Homo sapiens, UniProt O43187); test: KiNativ, OCI cells live cell; type: cell-based; conditions: 2 h, labeling site Lys1, peptide […]
IRAK2, sequence (O43187 whole entry): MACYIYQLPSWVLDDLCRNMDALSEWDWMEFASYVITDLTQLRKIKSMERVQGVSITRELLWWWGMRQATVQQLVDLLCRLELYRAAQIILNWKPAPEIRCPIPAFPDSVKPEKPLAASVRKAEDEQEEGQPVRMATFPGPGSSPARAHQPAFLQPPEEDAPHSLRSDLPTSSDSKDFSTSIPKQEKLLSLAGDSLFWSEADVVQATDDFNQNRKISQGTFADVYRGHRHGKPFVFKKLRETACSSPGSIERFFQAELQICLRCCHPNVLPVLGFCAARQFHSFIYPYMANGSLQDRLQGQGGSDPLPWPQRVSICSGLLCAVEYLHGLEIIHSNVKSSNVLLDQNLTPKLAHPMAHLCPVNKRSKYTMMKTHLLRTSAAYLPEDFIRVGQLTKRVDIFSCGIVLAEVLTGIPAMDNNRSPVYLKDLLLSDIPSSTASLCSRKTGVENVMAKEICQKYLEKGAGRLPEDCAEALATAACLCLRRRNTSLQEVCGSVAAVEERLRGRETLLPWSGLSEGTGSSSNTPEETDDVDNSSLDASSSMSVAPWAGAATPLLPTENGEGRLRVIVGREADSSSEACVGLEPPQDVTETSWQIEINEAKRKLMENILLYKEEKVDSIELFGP

BRAF = BRAF (Homo sapiens, UniProt P15056); test: KiNativ, OCI cells live cell; type: cell-based; conditions: 2 h, labeling site Lys2, peptide […]
AurB = AurB (Homo sapiens, UniProt Q96GD4); test: KiNativ, OCI cells live cell; type: cell-based; conditions: 2 h, labeling site Lys1, peptide […]
AurB, sequence (Q96GD4 whole entry): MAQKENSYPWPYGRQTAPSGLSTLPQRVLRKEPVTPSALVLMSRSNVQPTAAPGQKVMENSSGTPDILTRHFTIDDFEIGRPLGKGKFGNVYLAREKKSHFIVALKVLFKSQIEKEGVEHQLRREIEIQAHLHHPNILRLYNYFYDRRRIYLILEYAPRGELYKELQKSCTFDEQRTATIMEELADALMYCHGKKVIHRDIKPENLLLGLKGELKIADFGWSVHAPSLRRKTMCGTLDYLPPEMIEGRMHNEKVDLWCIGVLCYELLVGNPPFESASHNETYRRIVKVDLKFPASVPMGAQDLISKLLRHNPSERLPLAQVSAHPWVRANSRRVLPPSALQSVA

MAP2K1 = MAP2K1 (Homo sapiens, UniProt Q02750); test: KiNativ, OCI cells live cell; type: cell-based; conditions: 2 h, labeling site Lys2, peptide […]
MAP2K1, sequence (Q02750 whole entry): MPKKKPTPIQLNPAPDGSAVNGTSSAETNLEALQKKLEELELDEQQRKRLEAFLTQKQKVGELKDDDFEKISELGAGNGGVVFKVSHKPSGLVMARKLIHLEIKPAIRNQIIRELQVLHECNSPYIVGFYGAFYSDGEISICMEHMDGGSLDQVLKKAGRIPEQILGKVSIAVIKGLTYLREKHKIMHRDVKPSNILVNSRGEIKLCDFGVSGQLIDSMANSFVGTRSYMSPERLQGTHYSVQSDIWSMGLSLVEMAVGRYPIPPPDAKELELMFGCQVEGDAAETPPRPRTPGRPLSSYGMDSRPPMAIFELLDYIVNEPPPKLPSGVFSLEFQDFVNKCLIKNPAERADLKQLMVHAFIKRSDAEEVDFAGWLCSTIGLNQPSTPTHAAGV

RIPK3 = RIPK3 (Homo sapiens, UniProt Q9Y572); test: KiNativ, OCI cells live cell; type: cell-based; conditions: 2 h, labeling site Lys2, peptide […]

## CN1CCN(Cc2ccc(Nc3ncc(Cl)c(Nc4ccccc4S(=O)(=O)N(C)C)n3)cc2)CC1 [TP-0903]
Wnk1, Wnk2
  Inhibition: -19.4%
MAST3
  inhibition at 0.1 µM: -0.112%
TAO1, TAO3
  Inhibition: 73.9%
PIP4K2B
  inhibition at 0.1 µM: -24.4%
PIK3CB [1]
  inhibition at 0.1 µM: -7.2%
Cord blood CD34+ cells
  Concentration inhibiting colony formation of CD34+ cells: 200 nM
MST4, YSK1
  Inhibition vs DMSO: 39.6%
AKT2, AKT3
  Inhibition vs DMSO: -63.3%
MAP3K2, MAP3K3
  Inhibition vs DMSO: -4.2%
PKCd
  inhibition at 0.1 µM: -22.5%
JAK2
  Kd: < 5 nM
PCTAIRE2
  inhibition at 0.1 µM: 87.8%
NEK9
  inhibition at 0.1 µM: 37.9%
NEK9; OCI cells, live cell, labeling site Activation Loop, peptide LGDYGLAKK, read-out: Inhibition
  inhibition at 0.1 µM: 39.6%
NEK9; OCI cells, live cell, labeling site Lys1, peptide RTEDDSLVVWKEVDLTR, read-out: Inhibition
  inhibition at 0.1 µM: 40.8%
PIK3CB [2]
  inhibition at 0.1 µM: -0.9%
RSK1 domain2
  inhibition at 0.1 µM: -19.8%
IRAK2
  inhibition at 0.1 µM: -9.1%
BRAF
  inhibition at 0.1 µM: -3.1%
AurB
  inhibition at 0.1 µM: 83%
MAP2K1
  inhibition at 0.1 µM: 14.7%
RIPK3
  inhibition at 0.1 µM: 2.8%
